# Experimental data as given in patent publication US8563559B2 (Rigel Pharmaceuticals, Inc., priority 2006, dated 2013).
# Molecular target: T1, Axl (Homo sapiens, UniProt P30530)
# T1 construct: endogenous in cells; host or cells: HeLa
# T1 sequence (P30530 26-894): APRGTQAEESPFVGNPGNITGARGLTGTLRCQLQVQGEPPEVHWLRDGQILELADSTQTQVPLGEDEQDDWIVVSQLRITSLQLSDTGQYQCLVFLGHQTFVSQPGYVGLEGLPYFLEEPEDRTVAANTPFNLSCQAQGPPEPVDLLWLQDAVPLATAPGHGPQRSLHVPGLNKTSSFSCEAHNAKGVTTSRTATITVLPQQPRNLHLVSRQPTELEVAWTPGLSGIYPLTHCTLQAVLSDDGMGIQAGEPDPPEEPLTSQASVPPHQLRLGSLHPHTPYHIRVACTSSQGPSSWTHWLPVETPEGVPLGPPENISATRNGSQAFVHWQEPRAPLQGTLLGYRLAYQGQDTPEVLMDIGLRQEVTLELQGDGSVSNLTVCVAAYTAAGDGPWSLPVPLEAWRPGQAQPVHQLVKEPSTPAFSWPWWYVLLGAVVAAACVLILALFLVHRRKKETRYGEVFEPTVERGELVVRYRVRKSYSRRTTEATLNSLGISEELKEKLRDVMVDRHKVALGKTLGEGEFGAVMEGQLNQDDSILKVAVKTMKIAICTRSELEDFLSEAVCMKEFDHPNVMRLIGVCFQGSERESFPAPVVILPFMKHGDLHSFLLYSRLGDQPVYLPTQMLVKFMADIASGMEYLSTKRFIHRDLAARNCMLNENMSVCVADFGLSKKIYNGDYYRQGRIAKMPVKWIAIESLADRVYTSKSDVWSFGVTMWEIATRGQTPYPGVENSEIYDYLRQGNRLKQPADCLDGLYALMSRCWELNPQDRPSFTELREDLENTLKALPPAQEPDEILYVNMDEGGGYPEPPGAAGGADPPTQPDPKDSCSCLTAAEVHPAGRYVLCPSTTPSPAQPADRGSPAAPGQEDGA
# Assay: Phospho-AKT in-cell Western assay (inhibition of Axl activity)
# Format: cell-based
# Settings: Hela cells, Axl antibody cross-linking stimulation, phospho-Akt chemiluminescence normalized to relative cell number
# Protocol: The compounds of the invention were tested in the following assay for their ability to inhibit Axl activity.
# Phospho-AKT in-Cell Western Assay
# • Cell culture plate: 96 well assay plate (Corning 3610), white, clear bottom, tissue-culture treated. • Cells: Hela cells. • Starvation medium: For Axl stimulation: 0.5% FCS (fetal calf serum) in DMEM, plus Axl/Fc (extracellular domain of AXL fused to immunoglobulin Fc region) (R&D, 154-AL) 500 ng/mL. • For EGF (epidermal growth factor) stimulation: 0.5% FCS in DMEM (Dulbecco's modified Eagles medium). • Poly-L-Lysine 0.01% solution (the working solution): 10 μg/ml, dilute In PBS (phosphate buffered saline). • Axl antibody cross-linking: • 1st: Mouse anti-Axl (R&D, MAB154). • 2nd: Biotin-SP-conjugated AffiniPure goat anti-mouse IgG (H+L) (Jackson ImmunoResearch #115-065-003). • Fixing buffer: 4% formaldehyde in PBS. • Wash buffer: 0.1% TritonX-100 in PBS. • Quenching buffer: 3% H2O2, 0.1% Azide in wash buffer, Azide and hydrogen peroxide 1(H2O2) are added fresh. • Blocking buffer: 5% BSA in TBST (tris buffered saline plus 0.1% Tween 20). • Primary antibody: Rabbit anti-human Phospho-Akt antibody (Cell Signaling 9271): 1×250 diluted in blocking buffer. • Secondary antibody: HRP (horse radish peroxidase)-conjugated Goat anti-Rabbit secondary, stock solution: Jackson ImmunoResearch (Goat anti-Rabbit HRP, #111-035-144) 1:1 diluted in glycerol, store at −20° C. The working solution: 1×2000 dilution of stock in blocking buffer. • Chemiluminescent working solution (Pierce, 37030): SuperSignal ELISA (enzyme linked immunosorbant assay) Pico Chemiluminescent substrate. • Crystal Violet solution: Stock: 2.5% Crystal violet in methanol, filtered and kept at ambient temperature. The working solution: dilute the stock 1:20 with PBS immediately before use. • 10% SDS: working solution: 5% SDS (sodium dodecylsulfate), diluted in PBS Methods: Day 1:
# A 96 well TC (tissue culture treated) plate was coated with 10 μg/mL poly-L-Lysine at 37° C. for 30 min, washed twice with PBS, and air-dried for 5 minutes before cells were added. Hela cells were seeded at 10,000 cells/well and the cells were starved in 100 μL starvation medium containing Axl/Fc for 24 hrs.
# The cells were pre-treated with test compounds by adding 100 μL of 2× test compound to the starvation medium on the cells. The cells were incubated at 37° C. for 1 hr before stimulation.
# The cells were stimulated by Axl-antibody cross-linking as follows: A 5×1st/2nd Axl antibody mixture was made (37.5 μg/mL 1st/100 μg/mL 2nd) in starvation medium and nutated at 4° C. with thorough mixing for 1-2 hours for clustering. The resulting mix was warmed to 37° C. 50 μL of 5×Axl 1st/2nd of antibody cluster was added to the cells and the cells were incubated at 37° C. for 5 min.
# After 5 minutes stimulation, the plate was flicked to remove medium and the plate was tapped onto paper towels. Formaldehyde (4.0% in PBS, 100 μL) was added to fix the cells and the cells were incubated at ambient temperature for 20 min without shaking.
# The cells were washed with a plate washer buffer to remove the formaldehyde solution. The plate was flicked to removed excess wash buffer and tapped onto paper towels. Quenching buffer (100 μL) was added to each well and the cells were incubated at ambient temperature for 20 minutes without shaking.
# The cells were washed with a plate washer buffer to remove the quenching buffer. Blocking buffer (100 μL) was added and the cells were incubated at ambient temperature for at least an hour with gentle shaking.
# The cells were washed with a plate washer buffer and diluted primary antibody (50 μL) was added to each well (blocking buffer was added to the negative control wells instead). The plates were incubated overnight at 4° C. with gentle shaking.
# The wash buffer was removed, diluted secondary antibody (100 μL) was added, and the cells were incubated at ambient temperature for 1 hour with gentle shaking. […]
Compound,"IC50 (Table 1, formula (Ia))",further results
"CN1CCN(c2ccc(Nc3ncc(Cl)c(N[C@@]4(CCOCc5ccccc5)[C@@H](C(N)=O)C[C@H]5C[C@@H]4C5(C)C)n3)cc2F)CC1 [Compound 17, (1R,2R,3S,5R)-2-(2-(benzyloxy)ethyl)-2-(5-chloro-2-(3-fluoro-4-(4-methylpiperazin-1-yl)phenylamino)pyrimidin-4-ylamino)-6,6-dimethylbicyclo[3.1.1]heptane-3-carboxamide]",> 20000 nM,–
"CCN(CC)CCN1CCOc2cc(Nc3ncc(C(F)(F)F)c(N[C@@]4(C)[C@@H](C(=O)NC)C[C@H]5C[C@@H]4C5(C)C)n3)ccc21 [Compound 53, (1R,2R,3S,5R)-2-(5-trifluoromethyl-2-((3,4-dihydro-4-(2-(diethylamino)ethyl)-2H-benzo[b][1,4]oxazin-7-yl)-amino)pyrimidin-4-ylamino)-N,2,6,6-tetramethylbicyclo[3.1.1]heptane-3-carboxamide]",–,"IC50 (Table 3, formula (Ic)): < 1000 nM"
"CNC(=O)[C@H]1C[C@H]2C[C@H](C2(C)C)[C@@]1(C)Nc1nc(Nc2ccc3[nH]ccc3c2)ncc1Cl [Compound 26, (1R,2R,3S,5R)-2-(2-(1H-indol-5-ylamino)-5-chloropyrimidin-4-ylamino)-N,2,6,6-tetramethylbicyclo[3.1.1]heptane-3-carboxamide]",–,"IC50 (Table 4, formula (Id)): 1000 to 10000 nM"
"CNC(=O)[C@@H]1C[C@@H]2C[C@@H](C2(C)C)[C@]1(C)Nc1nc(Nc2ccc(OCCN3CCCC3)cc2)ncc1Cl [Compound 22, (1S,2S,3R,5S)-2-(5-chloro-2-(4-(2-(pyrrolidin-1-yl)ethoxy)phenylamino)pyrimidin-4-ylamino)-N,2,6,6-tetramethylbicyclo[3.1.1]heptane-3-carboxamide]",–,"IC50 (Table 2, formula (Ib)): > 20000 nM"
"CNC(=O)[C@H]1C[C@H]2C[C@H](C2(C)C)[C@@]1(C)Nc1nc(Nc2ccc(Cl)c(N3CCN(C(C)=O)CC3)c2)ncc1Cl [Compound 16, (1R,2R,3S,5R)-2-(2-(3-(4-acetylpiperazin-1-yl)-4-chlorophenylamino)-5-chloropyrimidin-4-ylamino)-N,2,6,6-tetramethylbicyclo[3.1.1]heptane-3-carboxamide]",1000 to 10000 nM,–
"CNC(=O)[C@H]1C[C@H]2C[C@H](C2(C)C)[C@@]1(C)Nc1nc(Nc2ccc3c(c2)OCCN3CCN2CCCCC2)ncc1F [Compound 57, (1R,2R,3S,5R)-2-(5-fluoro-2-((3,4-dihydro-4-(2-(piperidin-1-yl)ethyl)-2H-benzo[b][1,4]oxazin-7-yl)amino)pyrimidin-4-ylamino)-N,2,6,6-tetramethylbicyclo[3.1.1]heptane-3-carboxamide]",–,"IC50 (Table 3, formula (Ic)): < 1000 nM"

# Second part, led by results:
"IC50 (Table 1, formula (Ia))",Compound,further results
1000 to 10000 nM,"CNC(=O)[C@H]1C[C@H]2C[C@H](C2(C)C)[C@@]1(C)Nc1nc(Nc2ccc(N3CCC(F)(F)CC3)c(F)c2)ncc1C [Compound 44, (1R,2R,3S,5R)-2-(5-methyl-2-(3-fluoro-4-(4,4-difluoropiperidin-1-yl)phenylamino)pyrimidin-4-ylamino)-N,2,6,6-tetramethylbicyclo[3.1.1]heptane-3-carboxamide]",–
< 1000 nM,"CC1(C)[C@H]2C[C@H](C(=O)NC3CC3)[C@](C)(Nc3nc(Nc4ccc(OCCN5CCCC5)cc4)ncc3Cl)[C@@H]1C2 [Compound 61, (1R,2R,3S,5R)-2-(5-chloro-2-(4-(2-(pyrrolidin-1-yl)ethoxy)phenylamino)pyrimidin-4-ylamino)-N-cyclopropyl-2,6,6-trimethylbicyclo[3.1.1]heptane-3-carboxamide]",–
< 1000 nM,"CNC(=O)[C@H]1C[C@H]2C[C@H](C2(C)C)[C@@]1(C)Nc1nc(Nc2ccc(N3CCC(N4CCN(C)CC4)CC3)c(F)c2)ncc1Cl [Compound 31, (1R,2R,3S,5R)-2-(5-chloro-2-(3-fluoro-4-(4-(4-methylpiperazin-1-yl)piperidin-1-yl)phenylamino)pyrimidin-4-ylamino)-N,2,6,6-tetramethylbicyclo[3.1.1]heptane-3-carboxamide]",–
< 1000 nM,"CNC(=O)[C@H]1C[C@H]2C[C@H](C2(C)C)[C@@]1(C)Nc1nc(Nc2ccc(OCCN3CCCC3)c(F)c2)ncc1Cl [Compound 3, (1R,2R,3S,5R)-2-(5-chloro-2-(3-fluoro-4-(2-(pyrrolidin-1-yl)ethoxy)phenylamino)pyrimidin-4-ylamino)-N,2,6,6-tetramethylbicyclo[3.1.1]heptane-3-carboxamide]",–
< 1000 nM,"CNC(=O)[C@H]1C[C@H]2C[C@H](C2(C)C)[C@@]1(C)Nc1nc(Nc2ccc(N3CCN(C)CC3)c(F)c2)ncc1Cl [Compound 4, (1R,2R,3S,5R)-2-(5-chloro-2-(3-fluoro-4-(4-methylpiperazin-1-yl)phenylamino)pyrimidin-4-ylamino)-N,2,6,6-tetramethylbicyclo[3.1.1]heptane-3-carboxamide]",–
< 1000 nM,"CNC(=O)[C@H]1C[C@H]2C[C@H](C2(C)C)[C@@]1(C)Nc1nc(Nc2ccc(N3CCN(C)CC3)c(F)c2)ncc1C [Compound 43, (1R,2R,3S,5R)-2-(5-methyl-2-(3-fluoro-4-(4-methylpiperazin-1-yl)phenylamino)pyrimidin-4-ylamino)-N,2,6,6-tetramethylbicyclo[3.1.1]heptane-3-carboxamide]",–
1000 to 10000 nM,"CNC(=O)[C@H]1C[C@H]2C[C@H](C2(C)C)[C@@]1(C)Nc1nc(Nc2ccc(N3CCN(C(C)=O)CC3)c(Cl)c2)ncc1F [Compound 38, (1R,2R,3S,5R)-2-(5-fluoro-2-(3-chloro-4-(4-acetylpiperazin-1-yl)phenylamino)pyrimidin-4-ylamino)-N,2,6,6-tetramethylbicyclo[3.1.1]heptane-3-carboxamide]",–
< 1000 nM,"CC1(C)[C@H]2C[C@H](C(N)=O)[C@](C)(Nc3nc(Nc4ccc(OCCN5CCCC5)cc4)ncc3Cl)[C@@H]1C2 [Compound 29, (1R,2R,3S,5R)-2-(5-chloro-2-(4-(2-(pyrrolidin-1-yl)ethoxy)phenylamino)pyrimidin-4-ylamino)-2,6,6-trimethylbicyclo[3.1.1]heptane-3-carboxamide]",–
